Laboratory results reported in ChEMBL document CHEMBL1201862, “PubChem BioAssay data set” (2004).
Active and inactive are the calls of the source.

Assays:
Assay type in all cases: functional
CHO-K1 = assay: (§1) Counterscreen for antagonists of the orexin 1 receptor (OX1R; HCRTR1): Homogeneous time resolved fluorescence (HTRF)-based cell-based dose response assay to identify antagonists of the parental CHO-K1 cell line. [Related pubchem assays (depositor defined):AID434989, AID435008, AID463079, AID485270, AID492963, AID492964, AID492965, AID493232, AID504699, AID504701]; settings: Cricetulus griseus
[1] = Luminescence Cell-Based Dose Retest to Confirm Inhibitors of Cancer Stem Cells. [Related pubchem assays (depositor defined):AID2717, AID2721]; settings: Homo sapiens
[2] = target: T1, Ubiquitin-conjugating enzyme E2 N (Homo sapiens, UniProt P61088);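 note: Dose-response confirmation in a TR-FRET assay detecting UBC13-driven polyubiquitin chain formation, inhibition measured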
T1 sequence (P61088 whole entry): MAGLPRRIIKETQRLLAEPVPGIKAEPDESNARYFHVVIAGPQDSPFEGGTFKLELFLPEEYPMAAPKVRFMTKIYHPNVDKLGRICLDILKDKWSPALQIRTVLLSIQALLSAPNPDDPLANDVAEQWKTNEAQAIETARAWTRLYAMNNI

[3] = as §1, with “Fluorescence-based” for “Homogeneous time resolved fluorescence (HTRF)-based”, “cell-based high throughput” for “cell-based”, “CHO” for “CHO-K1”
[4] = target: T2, Orexin/Hypocretin receptor type 1 (Homo sapiens, UniProt O43613); assay: Homogeneous Time Resolved Fluorescence (HTRF)-based cell-based high throughput dose response assay for antagonists of the orexin 1 receptor (OX1R; HCRTR1). [Related pubchem assays (depositor defined):AID434989, AID435008, AID463079, AID485270, AID492963, AID492964, AID492965, AID493232, AID504717, AID504718]
T2 sequence (O43613 whole entry): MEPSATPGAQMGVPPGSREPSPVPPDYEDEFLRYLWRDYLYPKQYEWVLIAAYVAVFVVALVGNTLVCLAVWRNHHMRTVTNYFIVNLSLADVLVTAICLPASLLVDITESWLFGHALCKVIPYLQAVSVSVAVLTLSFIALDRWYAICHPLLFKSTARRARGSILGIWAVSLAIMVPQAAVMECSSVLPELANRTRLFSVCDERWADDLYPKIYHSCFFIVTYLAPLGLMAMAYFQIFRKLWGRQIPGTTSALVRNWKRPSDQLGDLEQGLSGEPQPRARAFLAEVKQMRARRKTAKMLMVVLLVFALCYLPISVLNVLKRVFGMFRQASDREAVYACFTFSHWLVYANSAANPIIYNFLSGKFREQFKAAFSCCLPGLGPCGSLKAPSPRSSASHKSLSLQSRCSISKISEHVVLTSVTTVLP

[5] = target: T2, Orexin/Hypocretin receptor type 1; assay: Fluorescence-based cell-based high throughput dose response assay for antagonists of the orexin 1 receptor (OX1R; HCRTR1). [Related pubchem assays (depositor defined):AID434989, AID435008, AID463079, AID485270, AID492963, AID492964, AID492965, AID493232, AID504717, AID504718]
[6] = target: Multidrug resistance protein CDR1 (Candida albicans, UniProt P43071); assay: Candida albicans Cdr1 pump inhibition curves – singleplex, Cherry Pick2 set, dose response (AID 623996); settings: read-out: EC50_MICROM
[7] = target: Multidrug resistance protein CDR2 (Candida albicans (strain SC5314 / ATCC MYA-2876) (Yeast), UniProt P78595); assay: blockers of Nile Red efflux by Candida CDR2 – S. cerevisiae AD1-8u, singleplex, Cherry Pick2 set, dose response (AID 623994); settings: read-out: EC50_MICROM
[8] = target: Benomyl/methotrexate resistance protein (Candida albicans, UniProt P28873); assay: Candida albicans Mdr1 pump blockade titration – singleplex, Cherry Pick2 set, dose response (AID 623992); settings: read-out: EC50_MICROM
Caspase-3 = target: T3, Caspase-3 (Homo sapiens, UniProt P42574);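 note: Dose-response selectivity test against caspase-3 for candidate inhibitors of sentrin-specific proteases (SENPs)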
T3 sequence (P42574 whole entry): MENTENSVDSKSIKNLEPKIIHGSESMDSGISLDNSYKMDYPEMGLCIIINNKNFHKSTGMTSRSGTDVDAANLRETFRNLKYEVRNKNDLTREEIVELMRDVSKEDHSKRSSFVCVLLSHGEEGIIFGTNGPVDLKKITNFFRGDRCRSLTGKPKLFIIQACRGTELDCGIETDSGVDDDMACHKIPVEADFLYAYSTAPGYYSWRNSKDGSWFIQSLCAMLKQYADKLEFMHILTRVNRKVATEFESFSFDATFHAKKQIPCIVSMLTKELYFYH

[9] = target: T4, Sentrin-specific protease 7 (Homo sapiens, UniProt Q9BQF6);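 note: Luminescence-based dose-response confirmation of ultra-high-throughput screening hits, measuring inhibition of SENP7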
T4 sequence (Q9BQF6 whole entry): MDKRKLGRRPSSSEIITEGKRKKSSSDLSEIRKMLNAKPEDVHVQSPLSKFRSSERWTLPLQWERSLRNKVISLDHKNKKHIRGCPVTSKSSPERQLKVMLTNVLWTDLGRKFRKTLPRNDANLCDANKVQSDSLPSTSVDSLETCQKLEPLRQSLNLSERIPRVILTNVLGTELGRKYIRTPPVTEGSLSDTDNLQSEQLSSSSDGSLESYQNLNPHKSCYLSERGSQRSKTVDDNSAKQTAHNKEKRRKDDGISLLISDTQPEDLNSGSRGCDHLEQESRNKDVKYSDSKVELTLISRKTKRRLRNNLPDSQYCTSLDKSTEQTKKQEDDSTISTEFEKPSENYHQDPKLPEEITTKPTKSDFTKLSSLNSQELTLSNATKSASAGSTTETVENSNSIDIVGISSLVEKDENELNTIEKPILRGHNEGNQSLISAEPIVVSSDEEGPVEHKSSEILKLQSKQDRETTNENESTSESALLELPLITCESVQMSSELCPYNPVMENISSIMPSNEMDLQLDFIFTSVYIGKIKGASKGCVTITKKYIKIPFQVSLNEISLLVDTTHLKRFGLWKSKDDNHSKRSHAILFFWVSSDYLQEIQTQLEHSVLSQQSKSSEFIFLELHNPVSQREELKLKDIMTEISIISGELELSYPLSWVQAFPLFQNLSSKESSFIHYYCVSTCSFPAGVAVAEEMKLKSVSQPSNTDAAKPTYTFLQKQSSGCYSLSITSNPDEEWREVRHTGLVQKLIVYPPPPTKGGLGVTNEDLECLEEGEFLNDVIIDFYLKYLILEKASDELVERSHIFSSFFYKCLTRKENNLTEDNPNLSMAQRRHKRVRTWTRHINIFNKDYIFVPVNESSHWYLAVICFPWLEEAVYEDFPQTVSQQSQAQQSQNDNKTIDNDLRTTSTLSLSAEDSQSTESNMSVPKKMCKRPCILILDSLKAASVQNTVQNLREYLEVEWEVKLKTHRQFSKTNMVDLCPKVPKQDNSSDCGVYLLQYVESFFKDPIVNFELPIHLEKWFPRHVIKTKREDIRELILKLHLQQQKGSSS

[10] = target: T5, Sentrin-specific protease 6 (Homo sapiens, UniProt Q9GZR1);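 note: Luminescence-based dose-response confirmatory assay of SENP6 inhibition, following up an ultra-high-throughput screen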
T5 sequence (Q9GZR1 whole entry): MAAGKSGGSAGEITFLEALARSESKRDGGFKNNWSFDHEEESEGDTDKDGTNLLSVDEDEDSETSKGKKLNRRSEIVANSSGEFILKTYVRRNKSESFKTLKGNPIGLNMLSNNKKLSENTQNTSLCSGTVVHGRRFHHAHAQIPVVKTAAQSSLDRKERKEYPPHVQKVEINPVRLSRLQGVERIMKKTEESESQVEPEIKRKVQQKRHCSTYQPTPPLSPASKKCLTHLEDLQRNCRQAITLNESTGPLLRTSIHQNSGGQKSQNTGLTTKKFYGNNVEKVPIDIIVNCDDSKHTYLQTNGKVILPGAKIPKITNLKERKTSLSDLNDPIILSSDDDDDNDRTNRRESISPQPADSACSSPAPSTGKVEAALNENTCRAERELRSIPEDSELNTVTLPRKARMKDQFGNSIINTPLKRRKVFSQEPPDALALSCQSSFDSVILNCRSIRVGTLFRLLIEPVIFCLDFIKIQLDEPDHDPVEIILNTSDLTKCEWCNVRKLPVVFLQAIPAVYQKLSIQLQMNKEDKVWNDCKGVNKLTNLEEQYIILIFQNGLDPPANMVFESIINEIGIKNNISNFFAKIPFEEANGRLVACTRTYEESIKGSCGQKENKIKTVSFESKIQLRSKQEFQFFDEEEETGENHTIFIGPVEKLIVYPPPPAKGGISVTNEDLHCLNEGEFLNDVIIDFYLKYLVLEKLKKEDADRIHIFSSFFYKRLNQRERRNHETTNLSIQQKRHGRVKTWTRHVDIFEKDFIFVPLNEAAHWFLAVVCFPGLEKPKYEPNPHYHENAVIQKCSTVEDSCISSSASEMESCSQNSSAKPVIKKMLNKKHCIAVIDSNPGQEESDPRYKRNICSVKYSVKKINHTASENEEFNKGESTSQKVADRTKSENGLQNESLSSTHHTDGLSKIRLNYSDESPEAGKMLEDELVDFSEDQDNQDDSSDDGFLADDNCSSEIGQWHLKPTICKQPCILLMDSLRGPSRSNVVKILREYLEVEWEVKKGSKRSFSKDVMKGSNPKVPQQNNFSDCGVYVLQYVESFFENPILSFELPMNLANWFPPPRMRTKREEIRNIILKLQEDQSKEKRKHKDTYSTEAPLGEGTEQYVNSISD

[11] = target: T6, Sentrin-specific protease 8 (Homo sapiens, UniProt Q96LD8);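 note: luminescence read-out of SENP8 inhibition, dose-response confirmation following an ultra-high-throughput screen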
T6 sequence (Q96LD8 whole entry): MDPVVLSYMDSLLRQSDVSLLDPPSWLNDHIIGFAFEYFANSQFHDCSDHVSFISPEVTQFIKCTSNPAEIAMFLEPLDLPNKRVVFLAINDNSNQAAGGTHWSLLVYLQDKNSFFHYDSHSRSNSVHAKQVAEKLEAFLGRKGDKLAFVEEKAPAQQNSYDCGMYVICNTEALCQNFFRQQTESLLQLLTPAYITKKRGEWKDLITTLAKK

[12] = target: T7, High affinity choline transporter 1 (Homo sapiens, UniProt Q9GZV3); assay: human choline transporter blockers, potency – cell-based, 5-point CRC, membrane potential dye, dose response (AID 504840)
T7 sequence (Q9GZV3 whole entry): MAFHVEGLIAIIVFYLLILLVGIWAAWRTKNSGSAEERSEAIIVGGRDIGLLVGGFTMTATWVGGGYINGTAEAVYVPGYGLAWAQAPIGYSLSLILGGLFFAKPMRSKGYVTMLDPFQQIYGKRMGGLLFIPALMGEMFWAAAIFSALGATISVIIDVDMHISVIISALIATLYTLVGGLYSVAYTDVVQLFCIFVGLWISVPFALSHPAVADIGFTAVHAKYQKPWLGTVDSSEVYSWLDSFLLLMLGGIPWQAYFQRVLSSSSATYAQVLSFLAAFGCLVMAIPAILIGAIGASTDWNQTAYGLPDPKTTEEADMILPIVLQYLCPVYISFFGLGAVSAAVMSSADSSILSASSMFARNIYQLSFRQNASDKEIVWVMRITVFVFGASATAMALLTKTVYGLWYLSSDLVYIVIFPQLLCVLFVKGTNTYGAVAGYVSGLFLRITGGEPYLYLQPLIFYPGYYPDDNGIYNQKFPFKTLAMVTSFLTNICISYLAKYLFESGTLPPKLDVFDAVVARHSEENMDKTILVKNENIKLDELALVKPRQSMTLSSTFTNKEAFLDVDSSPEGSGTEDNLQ

[13] = target: T7, High affinity choline transporter 1; assay: human choline transporter blockers, potency – cell-based, 10-point CRC, membrane potential dye, dose response (AID 588401);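 note: membrane potential dye fluorescence of choline-evoked depolarization via CHT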
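Throughout, for AC50: cells exposed to compound for roughly 70 hours or longer before luminescence read.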

Benomyl/methotrexate resistance protein, sequence (P28873 whole entry): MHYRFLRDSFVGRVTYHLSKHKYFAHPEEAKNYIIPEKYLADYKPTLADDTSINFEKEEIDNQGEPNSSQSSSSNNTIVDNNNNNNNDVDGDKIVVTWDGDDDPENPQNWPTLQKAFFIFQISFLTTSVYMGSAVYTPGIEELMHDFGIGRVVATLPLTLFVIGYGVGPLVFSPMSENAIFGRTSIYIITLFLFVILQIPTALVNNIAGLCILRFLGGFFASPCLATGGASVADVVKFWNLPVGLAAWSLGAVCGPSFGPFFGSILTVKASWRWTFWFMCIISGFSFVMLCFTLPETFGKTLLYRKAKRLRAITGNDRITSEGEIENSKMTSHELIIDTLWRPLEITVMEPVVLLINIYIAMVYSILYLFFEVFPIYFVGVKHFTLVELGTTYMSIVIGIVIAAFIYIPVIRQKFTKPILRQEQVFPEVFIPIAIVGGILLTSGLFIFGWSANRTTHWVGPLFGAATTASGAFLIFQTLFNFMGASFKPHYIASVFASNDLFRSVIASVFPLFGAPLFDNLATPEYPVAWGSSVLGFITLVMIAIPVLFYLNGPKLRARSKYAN
Multidrug resistance protein CDR1, sequence (P43071 whole entry, looked up): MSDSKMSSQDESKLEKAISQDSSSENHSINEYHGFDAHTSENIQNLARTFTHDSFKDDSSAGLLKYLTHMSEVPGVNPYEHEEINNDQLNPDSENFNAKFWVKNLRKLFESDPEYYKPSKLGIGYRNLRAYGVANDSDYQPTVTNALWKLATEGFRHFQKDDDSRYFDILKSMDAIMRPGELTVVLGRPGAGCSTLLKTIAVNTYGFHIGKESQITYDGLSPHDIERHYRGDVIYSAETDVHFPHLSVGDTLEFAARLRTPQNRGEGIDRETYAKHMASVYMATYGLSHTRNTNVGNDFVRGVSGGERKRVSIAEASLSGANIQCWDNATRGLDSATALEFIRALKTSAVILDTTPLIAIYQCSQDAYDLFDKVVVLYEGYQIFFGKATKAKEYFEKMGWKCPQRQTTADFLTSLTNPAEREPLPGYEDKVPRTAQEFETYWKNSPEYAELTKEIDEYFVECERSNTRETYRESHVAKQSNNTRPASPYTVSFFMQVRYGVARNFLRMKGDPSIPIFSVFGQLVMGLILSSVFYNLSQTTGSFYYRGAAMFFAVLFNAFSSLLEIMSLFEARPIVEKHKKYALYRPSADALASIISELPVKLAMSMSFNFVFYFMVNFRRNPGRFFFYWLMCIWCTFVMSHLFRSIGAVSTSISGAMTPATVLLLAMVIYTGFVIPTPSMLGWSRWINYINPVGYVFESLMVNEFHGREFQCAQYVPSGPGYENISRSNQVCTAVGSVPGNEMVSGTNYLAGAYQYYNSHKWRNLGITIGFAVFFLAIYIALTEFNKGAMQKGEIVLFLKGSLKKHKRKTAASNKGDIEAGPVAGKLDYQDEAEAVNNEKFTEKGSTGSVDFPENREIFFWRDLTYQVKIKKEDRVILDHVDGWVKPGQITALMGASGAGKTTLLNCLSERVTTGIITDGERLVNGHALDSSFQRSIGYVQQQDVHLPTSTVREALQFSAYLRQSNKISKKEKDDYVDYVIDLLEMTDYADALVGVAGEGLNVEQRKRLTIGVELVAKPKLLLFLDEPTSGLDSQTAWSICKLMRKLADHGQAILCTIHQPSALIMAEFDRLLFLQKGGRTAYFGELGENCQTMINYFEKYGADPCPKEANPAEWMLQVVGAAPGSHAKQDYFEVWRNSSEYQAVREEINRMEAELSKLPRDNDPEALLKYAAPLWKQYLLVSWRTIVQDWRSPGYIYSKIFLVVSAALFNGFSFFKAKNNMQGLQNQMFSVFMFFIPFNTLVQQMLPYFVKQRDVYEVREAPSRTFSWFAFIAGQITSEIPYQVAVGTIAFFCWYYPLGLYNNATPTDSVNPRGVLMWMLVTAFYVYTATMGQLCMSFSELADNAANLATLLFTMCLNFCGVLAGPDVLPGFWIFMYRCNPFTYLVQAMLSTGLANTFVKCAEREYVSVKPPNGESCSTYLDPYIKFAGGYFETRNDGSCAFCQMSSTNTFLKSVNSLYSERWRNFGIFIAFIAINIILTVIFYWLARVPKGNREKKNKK
Multidrug resistance protein CDR2, sequence (P78595 whole entry): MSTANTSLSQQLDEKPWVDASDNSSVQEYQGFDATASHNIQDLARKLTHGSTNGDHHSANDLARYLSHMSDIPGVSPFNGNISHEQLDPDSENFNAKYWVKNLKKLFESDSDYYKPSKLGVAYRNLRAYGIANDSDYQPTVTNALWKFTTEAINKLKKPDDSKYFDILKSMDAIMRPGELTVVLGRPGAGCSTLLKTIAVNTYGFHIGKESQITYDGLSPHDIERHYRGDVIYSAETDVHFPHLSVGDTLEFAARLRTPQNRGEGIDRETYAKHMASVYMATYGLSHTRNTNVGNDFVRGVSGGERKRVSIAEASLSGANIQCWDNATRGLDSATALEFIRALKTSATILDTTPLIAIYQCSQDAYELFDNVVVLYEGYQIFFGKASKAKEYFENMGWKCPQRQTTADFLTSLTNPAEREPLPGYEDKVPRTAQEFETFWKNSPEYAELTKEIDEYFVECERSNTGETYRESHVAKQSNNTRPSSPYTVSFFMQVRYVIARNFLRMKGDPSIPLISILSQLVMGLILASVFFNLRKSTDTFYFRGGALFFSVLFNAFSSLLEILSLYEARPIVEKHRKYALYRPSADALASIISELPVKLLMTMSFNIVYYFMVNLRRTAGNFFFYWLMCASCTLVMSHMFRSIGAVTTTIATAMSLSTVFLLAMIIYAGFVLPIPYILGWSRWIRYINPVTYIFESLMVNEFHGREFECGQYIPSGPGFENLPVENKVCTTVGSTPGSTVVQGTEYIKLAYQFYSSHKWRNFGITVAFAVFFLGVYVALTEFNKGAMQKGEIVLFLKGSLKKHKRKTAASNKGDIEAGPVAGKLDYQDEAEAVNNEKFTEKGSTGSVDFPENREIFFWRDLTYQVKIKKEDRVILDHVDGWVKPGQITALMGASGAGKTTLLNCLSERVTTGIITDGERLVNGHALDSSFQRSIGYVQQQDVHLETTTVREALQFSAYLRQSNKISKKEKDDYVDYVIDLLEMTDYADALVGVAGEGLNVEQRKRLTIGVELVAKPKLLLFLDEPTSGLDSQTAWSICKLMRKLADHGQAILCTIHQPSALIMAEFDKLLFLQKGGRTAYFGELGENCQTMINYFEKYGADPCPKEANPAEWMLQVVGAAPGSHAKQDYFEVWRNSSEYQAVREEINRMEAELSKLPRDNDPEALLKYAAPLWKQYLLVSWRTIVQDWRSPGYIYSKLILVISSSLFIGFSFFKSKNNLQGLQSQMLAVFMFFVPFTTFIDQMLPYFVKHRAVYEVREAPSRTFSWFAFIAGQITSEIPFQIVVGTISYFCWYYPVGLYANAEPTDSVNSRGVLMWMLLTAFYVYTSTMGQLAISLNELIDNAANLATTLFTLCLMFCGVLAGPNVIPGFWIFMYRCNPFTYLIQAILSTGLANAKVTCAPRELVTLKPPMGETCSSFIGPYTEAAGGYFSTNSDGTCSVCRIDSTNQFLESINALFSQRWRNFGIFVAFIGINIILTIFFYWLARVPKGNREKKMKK

Row | IC50 (Caspase-3) | IC50 [9] | IC50 [10] | IC50 [12] | IC50 [13] | SMILES | IC50 (CHO-K1) | AC50 [1] | IC50 [2] | IC50 [3] | IC50 [4] | IC50 [5] | EC50 [6] | EC50 [7] | EC50 [8] | IC50 [11]
1 |  |  |  |  |  | COc1cccc(-c2sc3ccc(OC)cc3c2-c2ccc(OCCN(C)C)cc2)c1 | > 66.2 µM (inactive) | 3.37 µM (active) | > 20 µM (inactive) | 17.5 µM (inactive) | > 66.2 µM (inactive) | 15.8 µM (inactive) | 26.8 µM (active) | 15.2 µM (active) | 32.1 µM (active) | 
2 | 8.4 µM (active) | 4.57 µM (active) | 10.8 µM (active) | 3.99 µM (active) | 3.4 µM (active) | Cn1c(SCc2ccc(C#N)cc2Cl)nc2ccccc21 |  |  |  |  |  |  |  |  |  | 14.8 µM (active)
